Results taken from the supplement of paper PMC8967900.

Legend:
Assay in all cases: selective drug sensitivity score (sDSS, relative to normal bone marrow) (sDSS (score)); higher = more potent and effective on the cell line relative to normal bone marrow cells
Conditions in all cases: 72 h
CCRF-CEM = tested on: CCRF-CEM
PF-382 = tested on: PF-382
MHH-CALL-4 = tested on: MHH-CALL-4
COG-LL-355h = tested on: COG-LL-355h
KASUMI-2 = tested on: KASUMI-2
ALL-SIL = tested on: ALL-SIL
NALM-6 = tested on: NALM-6
JURKAT = tested on: JURKAT
697 = tested on: 697
CCRF-HSB2 = tested on: CCRF-HSB2
MOLT-14 = tested on: MOLT-14
REH = tested on: REH
RCH-ACV = tested on: RCH-ACV
KARPAS-45 = tested on: KARPAS-45
NALL-1 = tested on: NALL-1
KOPN-8 = tested on: KOPN-8
P12-ICHIKAWA = tested on: P12-ICHIKAWA
MN-60 = tested on: MN-60
COG-LL-319h = tested on: COG-LL-319h
SEM cells = tested on: SEM cells
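Also: ALL cell lines in 384-well plates, five doses spanning 10,000-fold, each plate scaled between vehicle and 100 µmol/L benzalkonium chloride controls, sDSS an adapted area-under-curve metric.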

SMILES	selective drug sensitivity score (CCRF-CEM)	selective drug sensitivity score (PF-382)	selective drug sensitivity score (MHH-CALL-4)	selective drug sensitivity score (COG-LL-355h)	selective drug sensitivity score (KASUMI-2)	selective drug sensitivity score (ALL-SIL)	selective drug sensitivity score (NALM-6)	selective drug sensitivity score (JURKAT)	selective drug sensitivity score 697	selective drug sensitivity score (CCRF-HSB2)	selective drug sensitivity score (MOLT-14)	selective drug sensitivity score (REH)	selective drug sensitivity score (RCH-ACV)	selective drug sensitivity score (KARPAS-45)	selective drug sensitivity score (NALL-1)	selective drug sensitivity score (KOPN-8)	selective drug sensitivity score (P12-ICHIKAWA)	selective drug sensitivity score (MN-60)	selective drug sensitivity score (COG-LL-319h)	selective drug sensitivity score (SEM cells)
CC(C)Cn1cnc2c(N)nc3ccccc3c21 [Imiquimod] (top concentration 2500 nM)	0	0	0.9	0.6	1.5	0	0.4	0	0.4	0.4	0	5.1	1.7	0	0	2.7	0	0	0	0
N#Cc1ccnc(N2C(=O)CC[C@H]2C(=O)N(c2cncc(F)c2)[C@H](C(=O)NC2CC(F)(F)C2)c2ccccc2Cl)c1 [Ivosidenib] (top concentration 10000 nM)	1	0.8	0	0	0.6	2	0	0.7	0.1	1.6	0.1	0.6	0	0.5	0	0.2	1	0	0	0
C/C(=C\c1csc(C)n1)[C@@H]1C[C@@H]2O[C@]2(C)CCC[C@H](C)[C@H](O)[C@@H](C)C(=O)C(C)(C)[C@@H](O)CC(=O)N1 [Ixabepilone] (top concentration 1000 nM)	3.08	1.68	0.58	2.48	1.48	2.98	4.48	3.28	4.68	3.18	4.58	3.78	6.78	3.68	1.68	6.98	2.58	1.48	3.68	3.58
Nc1cc(COc2c(Cl)cc(C[C@H](N)C(=O)O)cc2Cl)c2oc(-c3ccccc3)nc2c1 [JPH203] (top concentration 5000 nM)	0	0	1.2	1.5	0	0	0	0	0	0	0	0.2	4.5	0	0	0	0	0	0	0
